Measurements as given in PubChem BioAssay AID1259407 (Chemical Carcinogenesis Research Information System (CCRIS), 2018).
Active and inactive are the calls of the source. How the calls were made is not given here.

Test system: CCRIS mutagenicity, Ames/micronucleus/aberration tests
Experiment: CCRIS mutagenicity studies
[1] = Test System: AMES SALMONELLA TYPHIMURIUM, Strain/Indicator: TA98, Metabolic Activation: NONE, Method: PREINCUBATION
[2] = Test System: AMES SALMONELLA TYPHIMURIUM, Strain/Indicator: TA100, Metabolic Activation: NONE, Method: PREINCUBATION
[3] = Test System: AMES SALMONELLA TYPHIMURIUM, Strain/Indicator: TA98, Metabolic Activation: NONE, Method: STANDARD PLATE
[4] = Test System: AMES SALMONELLA TYPHIMURIUM, Strain/Indicator: TA100, Metabolic Activation: NONE, Method: STANDARD PLATE

Measured: mutagenic call

Cc1ccc([N+](=O)[O-])cc1C
inactive: [1] inactive; negative | Test System: AMES SALMONELLA TYPHIMURIUM, Strain/Indicator: TA98, Metabolic Activation: RAT, LIVER, S-9, KANECHLOR 500, Method: PREINCUBATION inactive; negative | [2] inactive; negative

COc1c2ccoc2nc2c(O)cccc12
active: Test System: AMES SALMONELLA TYPHIMURIUM, Strain/Indicator: TA98, Metabolic Activation: RAT LIVER S-9, PHENOBARTITAL, Method: STANDARD PLATE active; positive
inactive: [3] inactive; negative

CN1CCN(c2ccc3nc(-c4ccc5nc(-c6ccc(N(CCCl)CCCl)cc6)[nH]c5c4)[nH]c3c2)CC1
inactive: [3] inactive; negative | [4] inactive; negative | Test System: AMES SALMONELLA TYPHIMURIUM, Strain/Indicator: TA102, Metabolic Activation: NONE, Method: STANDARD PLATE inactive; negative

COc1cccc(C(=O)CBr)c1
inactive: [1] inactive; negative | Test System: AMES SALMONELLA TYPHIMURIUM, Strain/Indicator: TA98, Metabolic Activation: RAT, LIVER, S-9, PCB, Method: PREINCUBATION inactive; negative | [2] inactive; negative | Test System: AMES SALMONELLA TYPHIMURIUM, Strain/Indicator: TA100, Metabolic Activation: RAT, LIVER, S-9, PCB, Method: PREINCUBATION inactive; negative | Test System: E. COLI, Strain/Indicator: WP2 UVRA, Metabolic Activation: NONE, Method: PREINCUBATION inactive; negative

Oc1ccc(Cl)c(Cl)c1
inactive: Test System: AMES SALMONELLA TYPHIMURIUM, Strain/Indicator: TA98, Metabolic Activation: HAMSTER, LIVER, S-9, AROCLOR 1254, Method: PREINCUBATION inactive; negative | [1] inactive; negative | Test System: AMES SALMONELLA TYPHIMURIUM, Strain/Indicator: TA98, Metabolic Activation: RAT, LIVER, S-9, AROCLOR 1254, Method: PREINCUBATION inactive; negative | Test System: AMES SALMONELLA TYPHIMURIUM, Strain/Indicator: TA100, Metabolic Activation: HAMSTER, LIVER, S-9, AROCLOR 1254, Method: PREINCUBATION inactive; negative | [2] inactive; negative | Test System: AMES SALMONELLA TYPHIMURIUM, Strain/Indicator: TA100, Metabolic Activation: RAT, LIVER, S-9, AROCLOR 1254, Method: PREINCUBATION inactive; negative | Test System: AMES SALMONELLA TYPHIMURIUM, Strain/Indicator: TA1535, Metabolic Activation: HAMSTER, LIVER, S-9, AROCLOR 1254, Method: PREINCUBATION inactive; negative | Test System: AMES SALMONELLA TYPHIMURIUM, Strain/Indicator: TA1535, Metabolic Activation: NONE, Method: PREINCUBATION inactive; negative | Test System: AMES SALMONELLA TYPHIMURIUM, Strain/Indicator: TA1535, Metabolic Activation: RAT, LIVER, S-9, AROCLOR 1254, Method: PREINCUBATION inactive; negative | Test System: AMES SALMONELLA TYPHIMURIUM, Strain/Indicator: TA1537, Metabolic Activation: HAMSTER, LIVER, S-9, AROCLOR 1254, Method: PREINCUBATION inactive; negative | Test System: AMES SALMONELLA TYPHIMURIUM, Strain/Indicator: TA1537, Metabolic Activation: NONE, Method: PREINCUBATION inactive; negative | Test System: AMES SALMONELLA TYPHIMURIUM, Strain/Indicator: TA1537, Metabolic Activation: RAT, LIVER, S-9, AROCLOR 1254, Method: PREINCUBATION inactive; negative

CC1(C)[C@@H](O[C@H]2O[C@H](C(=O)O)[C@@H](O)[C@H](O)[C@H]2O[C@@H]2O[C@H](C(=O)O)[C@@H](O)[C@H](O)[C@H]2O)CC[C@]2(C)[C@H]3C(=O)C=C4[C@@H]5C[C@@](C)(C(=O)O)CC[C@]5(C)CC[C@@]4(C)[C@]3(C)CC[C@@H]12
inactive: End Point: IN VIVO MICRONUCLEUS, Test System: BONE MARROW POLYCHROMATIC ERYTHROCYTES, Species: MOUSE, Strain/Sex: DDY/MALE, Route: IP inactive; negative | Test System: AMES SALMONELLA TYPHIMURIUM, Strain/Indicator: TA97A, Metabolic Activation: NONE, Method: PREINCUBATION inactive; negative | Test System: AMES SALMONELLA TYPHIMURIUM, Strain/Indicator: TA97A, Metabolic Activation: RAT, LIVER, S-9, AROCLOR 1254, Method: PREINCUBATION inactive; negative | [3] inactive; negative | Test System: AMES SALMONELLA TYPHIMURIUM, Strain/Indicator: TA98, Metabolic Activation: RAT, LIVER, S-9, AROCLOR 1254, Method: STANDARD PLATE inactive; negative | [4] inactive; negative | Test System: AMES SALMONELLA TYPHIMURIUM, Strain/Indicator: TA100, Metabolic Activation: RAT, LIVER, S-9, AROCLOR 1254, Method: STANDARD PLATE inactive; negative | Test System: AMES SALMONELLA TYPHIMURIUM, Strain/Indicator: TA102, Metabolic Activation: NONE, Method: PREINCUBATION inactive; negative | Test System: AMES SALMONELLA TYPHIMURIUM, Strain/Indicator: TA102, Metabolic Activation: RAT, LIVER, S-9, AROCLOR 1254, Method: PREINCUBATION inactive; negative | Test System: AMES SALMONELLA TYPHIMURIUM, Strain/Indicator: TA1535, Metabolic Activation: NONE, Method: STANDARD PLATE inactive; negative | Test System: AMES SALMONELLA TYPHIMURIUM, Strain/Indicator: TA1535, Metabolic Activation: RAT, LIVER, S-9, AROCLOR 1254, Method: STANDARD PLATE inactive; negative | Test System: AMES SALMONELLA TYPHIMURIUM, Strain/Indicator: TA1537, Metabolic Activation: NONE, Method: STANDARD PLATE inactive; negative | Test System: AMES SALMONELLA TYPHIMURIUM, Strain/Indicator: TA1537, Metabolic Activation: RAT, LIVER, S-9, AROCLOR 1254, Method: STANDARD PLATE inactive; negative | Test System: AMES SALMONELLA TYPHIMURIUM, Strain/Indicator: TA1538, Metabolic Activation: NONE, Method: STANDARD PLATE inactive; negative | Test System: AMES SALMONELLA TYPHIMURIUM, Strain/Indicator: TA1538, Metabolic Activation: RAT, LIVER, S-9, AROCLOR 1254, Method: STANDARD PLATE inactive; negative | Test System: E. COLI, Strain/Indicator: WP2, Metabolic Activation: NONE, Method: STANDARD PLATE inactive; negative | Test System: E. COLI, Strain/Indicator: WP2, Metabolic Activation: RAT, LIVER, S-9, AROCLOR 1254, Method: STANDARD PLATE inactive; negative

NC(=O)c1nnn(Cc2cc(Cl)c(C(=O)c3ccc(Cl)cc3)c(Cl)c2)c1N
inactive: Test System: Mouse lymphoma, Strain/Indicator: L5178Y (tk+/tk-), Metabolic Activation: None, Method: Suspension/plate inactive; inconclusive (previous evaluation negative) | Test System: Mouse lymphoma, Strain/Indicator: L5178Y (tk+/tk-), Metabolic Activation: Rat, Liver, S-9, Aroclor 1254, Method: Suspension/plate inactive; negative

N[C@@H](CCC(=O)Nc1ccc([N+](=O)[O-])cc1)C(=O)O
inactive: [4] inactive; negative | Test System: AMES SALMONELLA TYPHIMURIUM, Strain/Indicator: TA100, Metabolic Activation: RAT KIDNEY, MICROSOMES, Method: STANDARD PLATE inactive; negative | Test System: AMES SALMONELLA TYPHIMURIUM, Strain/Indicator: TA100, Metabolic Activation: RAT LIVER, MICROSOMES, Method: STANDARD PLATE inactive; negative

N=C(N)c1cc2ccc(Br)cc2[nH]1
inactive: [3] inactive; negative | Test System: AMES SALMONELLA TYPHIMURIUM, Strain/Indicator: TA98, Metabolic Activation: RAT, LIVER, S-9, PHENOBARBITAL, Method: STANDARD PLATE inactive; negative | [4] inactive; negative | Test System: AMES SALMONELLA TYPHIMURIUM, Strain/Indicator: TA100, Metabolic Activation: RAT, LIVER, S-9, PHENOBARBITAL, Method: STANDARD PLATE inactive; negative
